# Results taken from patent US8969516B2, “Method of hydrolysis of peptide bond” (priority 2006, dated 2015).
# Assay: MALDI-TOF screening of Ni^2+ dependent hydrolysis in a combinatorial peptide library
# Assay type: physicochemical
# Details: Ni^2+ 2 mM, pH 8.2, 10 mM Tris, score=24/tm
# How it was run: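 MALDI-TOF spectra taken at 2, 4, 6 and 8 h tracked the appearance of Ser/Thr-X-His-Z-Lys-Phe-Leu-NH2 cleavage products and the fall in substrate signals. Reactions: 1 mM peptide mixture, 2 mM Ni^2+, 10 mM Tris pH 8.2, at 37 or 45 °C; X/Z substitutions ranked by summed scores.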
# [1] = CH3CO-Gly-Ala-Ser-X-His-Z-Lys-Phe-Leu-NH2 library, 37° C.
# [2] = CH3CO-Gly-Ala-Ser-X-His-Z-Lys-Phe-Leu-NH2 library, 45° C.
# [3] = CH3CO-Gly-Ala-Thr-X-His-Z-Lys-Phe-Leu-NH2 library, 37° C.
# [4] = CH3CO-Gly-Ala-Thr-X-His-Z-Lys-Phe-Leu-NH2 library, 45° C.
Substance,hydrolysis score from MALDI-TOF screening [1],hydrolysis score from MALDI-TOF screening [2],hydrolysis score from MALDI-TOF screening [3],hydrolysis score from MALDI-TOF screening [4]
Ac-GASQHKKFL-NH2 [SQHK],4 (a score of 4 for detection at 6 hours),6 (a score of 6 for detection at 4 hours),,
Ac-GASGHPKFL-NH2 [SGHP],0 (a score of 0 if no trace of the product of hydrolysis was seen after 8 hours of incubation),0 (a score of 0 if no trace of the product of hydrolysis was seen after 8 hours of incubation),,
Ac-GASFHWKFL-NH2 [SFHW],4 (a score of 4 for detection at 6 hours),6 (a score of 6 for detection at 4 hours),,
Ac-GASYHPKFL-NH2 [SYHP],0 (a score of 0 if no trace of the product of hydrolysis was seen after 8 hours of incubation),0 (a score of 0 if no trace of the product of hydrolysis was seen after 8 hours of incubation),,
Ac-GASNHDKFL-NH2 [SNHD],0 (a score of 0 if no trace of the product of hydrolysis was seen after 8 hours of incubation),0 (a score of 0 if no trace of the product of hydrolysis was seen after 8 hours of incubation),,
Ac-GASAHFKFL-NH2 [SAHF],0 (a score of 0 if no trace of the product of hydrolysis was seen after 8 hours of incubation),3 (a score of 3 for detection at 8 hours),,
Ac-GASYHRKFL-NH2 [SYHR],4 (a score of 4 for detection at 6 hours),6 (a score of 6 for detection at 4 hours),,
Ac-GATVHIKFL-NH2 [TVHI],,,0 (a score of 0 if no trace of the product of hydrolysis was seen after 8 hours of incubation),0 (a score of 0 if no trace of the product of hydrolysis was seen after 8 hours of incubation)
Ac-GATAHAKFL-NH2 [TAHA],,,0 (a score of 0 if no trace of the product of hydrolysis was seen after 8 hours of incubation),0 (a score of 0 if no trace of the product of hydrolysis was seen after 8 hours of incubation)
Ac-GASHHLKFL-NH2 [SHHL],6 (a score of 6 for detection at 4 hours),6 (a score of 6 for detection at 4 hours),,
Ac-GATNHHKFL-NH2 [TNHH],,,0 (a score of 0 if no trace of the product of hydrolysis was seen after 8 hours of incubation),0 (a score of 0 if no trace of the product of hydrolysis was seen after 8 hours of incubation)
Ac-GASRHTKFL-NH2 [SRHT],0 (a score of 0 if no trace of the product of hydrolysis was seen after 8 hours of incubation),3 (a score of 3 for detection at 8 hours),,
Ac-GASMHYKFL-NH2 [SMHY],3 (a score of 3 for detection at 8 hours),4 (a score of 4 for detection at 6 hours),,
Ac-GASRHQKFL-NH2 [SRHQ],0 (a score of 0 if no trace of the product of hydrolysis was seen after 8 hours of incubation),0 (a score of 0 if no trace of the product of hydrolysis was seen after 8 hours of incubation),,
Ac-GATQHSKFL-NH2 [TQHS],,,0 (a score of 0 if no trace of the product of hydrolysis was seen after 8 hours of incubation),0 (a score of 0 if no trace of the product of hydrolysis was seen after 8 hours of incubation)
Ac-GATHHWKFL-NH2 [THHW],,,"12 (a score of 12, if it was seen to be partially hydrolysed at 2 hours)","12 (a score of 12, if it was seen to be partially hydrolysed at 2 hours)"
Ac-GASSHQKFL-NH2 [SSHQ],0 (a score of 0 if no trace of the product of hydrolysis was seen after 8 hours of incubation),0 (a score of 0 if no trace of the product of hydrolysis was seen after 8 hours of incubation),,
Ac-GATQHMKFL-NH2 [TQHM],,,0 (a score of 0 if no trace of the product of hydrolysis was seen after 8 hours of incubation),0 (a score of 0 if no trace of the product of hydrolysis was seen after 8 hours of incubation)
Ac-GATSHLKFL-NH2 [TSHL],,,0 (a score of 0 if no trace of the product of hydrolysis was seen after 8 hours of incubation),0 (a score of 0 if no trace of the product of hydrolysis was seen after 8 hours of incubation)
Ac-GASVHEKFL-NH2 [SVHE],0 (a score of 0 if no trace of the product of hydrolysis was seen after 8 hours of incubation),0 (a score of 0 if no trace of the product of hydrolysis was seen after 8 hours of incubation),,
Ac-GATMHMKFL-NH2 [TMHM],,,0 (a score of 0 if no trace of the product of hydrolysis was seen after 8 hours of incubation),0 (a score of 0 if no trace of the product of hydrolysis was seen after 8 hours of incubation)
Ac-GATQHPKFL-NH2 [TQHP],,,0 (a score of 0 if no trace of the product of hydrolysis was seen after 8 hours of incubation),0 (a score of 0 if no trace of the product of hydrolysis was seen after 8 hours of incubation)
Ac-GASTHSKFL-NH2 [STHS],0 (a score of 0 if no trace of the product of hydrolysis was seen after 8 hours of incubation),0 (a score of 0 if no trace of the product of hydrolysis was seen after 8 hours of incubation),,
Ac-GATFHFKFL-NH2 [TFHF],,,0 (a score of 0 if no trace of the product of hydrolysis was seen after 8 hours of incubation),0 (a score of 0 if no trace of the product of hydrolysis was seen after 8 hours of incubation)
Ac-GASHHWKFL-NH2 [SHHW],6 (a score of 6 for detection at 4 hours),"12 (a score of 12, if it was seen to be partially hydrolysed at 2 hours)",,
Ac-GATLHMKFL-NH2 [TLHM],,,0 (a score of 0 if no trace of the product of hydrolysis was seen after 8 hours of incubation),0 (a score of 0 if no trace of the product of hydrolysis was seen after 8 hours of incubation)
Ac-GATLHKKFL-NH2 [TLHK],,,0 (a score of 0 if no trace of the product of hydrolysis was seen after 8 hours of incubation),3 (a score of 3 for detection at 8 hours)
Ac-GATQHYKFL-NH2 [TQHY],,,0 (a score of 0 if no trace of the product of hydrolysis was seen after 8 hours of incubation),0 (a score of 0 if no trace of the product of hydrolysis was seen after 8 hours of incubation)
Ac-GASVHGKFL-NH2 [SVHG],0 (a score of 0 if no trace of the product of hydrolysis was seen after 8 hours of incubation),0 (a score of 0 if no trace of the product of hydrolysis was seen after 8 hours of incubation),,
Ac-GATFHRKFL-NH2 [TFHR],,,3 (a score of 3 for detection at 8 hours),4 (a score of 4 for detection at 6 hours)
